Assay results from publication PMC7614775 (Nature chemical biology, 2022).
“Also recorded” adds a separate entry of the source.

Columns and labels:
JAK1_C817 = JAK1_C817 (Homo sapiens, UniProt P23458); assay: Untargeted cysteine MS-ABPP, human PBMC lysates treated in vitro; assay type: binding; settings: PBMC lysate in vitro, 1 h
[1] = tested on: prolactin (PRL)-stimulated STAT5 (JAK2-dependent) phosphorylation; assay: Phospho-STAT western blot in 22Rv1 cells expressing JAK1 variants; assay type: cell-based, human; settings: 2 µM, 2 h
[2] = tested on: IFNα-stimulated STAT1 phosphorylation (TYK2-dependent); assay: Phospho-STAT western blot in 22Rv1 cells expressing TYK2 variants; assay type: cell-based, human; settings: WT-TYK2 expressing 22Rv1 cells; 2 h
[3] = tested on: αCD3/αCD28-stimulated primary human T cells (IFNγ, IL-2 secretion); assay: Cytokine secretion of activated T cells (ELISA); assay type: cell-based; settings: αCD3/αCD28 co-stimulation, 24 h
primary human T cells = assay: T-cell viability (Near IR Live/Dead stain); assay type: cell-based; settings: 24 h
[4] = tested on: GM-CSF stimulated STAT5 phosphorylation (JAK2-dependent); assay: Phospho-STAT western blot in human PBMCs; assay type: cell-based; settings: compound 2 h, GM-CSF 15 min
[5] = tested on: αCD3/αCD28-stimulated primary human T cells (CD25, CD69); assay: T-cell activation analysis by flow cytometry; assay type: cell-based; settings: 24 h
[6] = tested on: IL-6-stimulated STAT3 phosphorylation; assay: Phospho-STAT western blot in human PBMCs; assay type: cell-based; settings: 0.1 µM
[7] = tested on: IL-6-stimulated STAT3 phosphorylation; assay: Phospho-STAT western blot in mouse splenocytes; assay type: cell-based
SLC66A3_C135 = biological target: T1, SLC66A3_C135 (Homo sapiens, UniProt Q8N755); assay: Untargeted cysteine MS-ABPP, human PBMCs treated in situ; assay type: binding
T1 sequence (Q8N755 20-202): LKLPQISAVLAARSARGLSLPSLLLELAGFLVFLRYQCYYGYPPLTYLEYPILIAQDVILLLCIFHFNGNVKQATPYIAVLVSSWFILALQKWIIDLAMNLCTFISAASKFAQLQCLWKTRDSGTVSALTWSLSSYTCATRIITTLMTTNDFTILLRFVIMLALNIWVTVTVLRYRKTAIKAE

[8] = biological target: recombinant JAK1 (WT, C810A, C817A) (Homo sapiens, UniProt P23458); assay: Gel-based ABPP in 22Rv1 cells; assay type: binding; settings: pre-treatment 0.01–1 μM, 2 h, in situ
[9] = tested on: IFNα-dependent STAT1 phosphorylation; assay: Phospho-STAT western blot in mouse splenocytes; assay type: cell-based; settings: 0.01–0.1 µM
[10] = tested on: IFNα-stimulated STAT1 phosphorylation; assay: Phospho-STAT western blot in human PBMCs; assay type: cell-based; settings: 0.1 µM

JAK1_C817, sequence (P23458 whole entry): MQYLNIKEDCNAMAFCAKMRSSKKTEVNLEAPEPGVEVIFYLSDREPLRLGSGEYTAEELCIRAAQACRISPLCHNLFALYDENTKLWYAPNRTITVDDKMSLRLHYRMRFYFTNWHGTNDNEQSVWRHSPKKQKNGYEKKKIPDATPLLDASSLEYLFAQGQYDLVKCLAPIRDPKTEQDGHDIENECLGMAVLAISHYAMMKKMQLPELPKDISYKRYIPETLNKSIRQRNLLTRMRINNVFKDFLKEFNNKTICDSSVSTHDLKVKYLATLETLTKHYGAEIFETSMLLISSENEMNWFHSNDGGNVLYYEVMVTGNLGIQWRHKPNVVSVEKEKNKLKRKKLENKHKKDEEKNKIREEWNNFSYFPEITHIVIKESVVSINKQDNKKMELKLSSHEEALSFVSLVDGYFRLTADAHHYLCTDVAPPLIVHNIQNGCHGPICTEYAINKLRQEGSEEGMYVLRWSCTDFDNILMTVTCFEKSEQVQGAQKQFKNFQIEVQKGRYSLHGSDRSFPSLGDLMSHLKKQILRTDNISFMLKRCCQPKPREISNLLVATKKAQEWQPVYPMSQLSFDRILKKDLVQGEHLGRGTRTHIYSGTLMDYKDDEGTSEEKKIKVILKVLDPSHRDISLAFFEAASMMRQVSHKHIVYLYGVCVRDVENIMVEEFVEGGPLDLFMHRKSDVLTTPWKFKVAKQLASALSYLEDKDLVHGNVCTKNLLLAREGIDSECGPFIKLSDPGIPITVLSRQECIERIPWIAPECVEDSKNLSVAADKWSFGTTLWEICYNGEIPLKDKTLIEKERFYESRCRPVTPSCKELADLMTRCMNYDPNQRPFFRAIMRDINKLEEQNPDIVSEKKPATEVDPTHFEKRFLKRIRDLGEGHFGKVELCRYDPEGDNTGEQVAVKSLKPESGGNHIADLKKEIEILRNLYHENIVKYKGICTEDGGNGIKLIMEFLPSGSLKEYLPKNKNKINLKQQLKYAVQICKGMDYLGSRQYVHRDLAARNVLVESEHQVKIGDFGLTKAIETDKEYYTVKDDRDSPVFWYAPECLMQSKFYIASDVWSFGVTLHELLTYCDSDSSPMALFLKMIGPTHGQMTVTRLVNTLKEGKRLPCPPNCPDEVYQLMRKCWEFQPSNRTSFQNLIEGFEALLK
recombinant JAK1 (WT, C810A, C817A), sequence (P23458 whole entry C810A/C817A): as the sequence (P23458 whole entry) above, with C810A, C817A counted along it

With `CS(=O)(=O)N1CC[C@H](C#CC(=O)N2CCC[C@@H](c3ccc(Cl)c(Cl)c3)C2)C1` [VVD-118313] the “%Engagement” value (JAK1_C817; 0.01 µM) was 81%, the “Engagement Ratio (DMSO/VVD-118313)” value (JAK1_C817; 0.01 µM) was 5.1 and the “%Engagement” value (JAK1_C817; 0.1 µM) was 96%. The “Engagement Ratio (DMSO/VVD-118313)” value (JAK1_C817; 0.1 µM) was 20.0, the “%Engagement” value (JAK1_C817; 1 µM) was 97% and the “Engagement Ratio (DMSO/VVD-118313)” value (JAK1_C817; 1 µM) was 20.0. For the same compound, the “%Engagement” value (JAK1_C817; 10 µM) was 98%, the “Engagement Ratio (DMSO/VVD-118313)” value (JAK1_C817; 10 µM) was 20.0 and the “effect on PRL-induced STAT5 phosphorylation” value [1] was “inactive”. The “effect on IFNα-induced STAT1 phosphorylation” value [2] was “blocked”, the “production of IL-2” value [3] was “slightly increased” and the “secretion of IFNγ” value [3] was “partially blocked”. For the same compound, the T-cell viability (primary human T cells) was “Neither compound affected”, the “effect on GM-CSF stimulated STAT5 phosphorylation” value [4] was “no effect; also recorded: modest inhibitory effects” and the “CD25+ (% of live cells)” value ([5]; 0.4 μM, representative flow cytometry plot) was 83%. For the same compound, the “T-cell activation (proportion of CD25+ T-cells)” value ([5]; αCD3/αCD28 co-stimulation) was “partially inhibited”, the “early-stage activation marker CD69” value ([5]; αCD3/αCD28 co-stimulation) was “Neither compound affected” and the “inhibition of IL-6-stimulated STAT3 phosphorylation” value [6] was > 85%. The “effect on IL-6-dependent STAT3 phosphorylation” value ([7]; Tyk2−/− splenocytes) was “fully blocked”, the “effect on IL-6-stimulated STAT3 phosphorylation” value ([7]; WT mouse splenocytes) was “did not inhibit” and the “Engagement Ratio (DMSO/VVD-118313)” value (SLC66A3_C135; 0.01 µM) was 1.0. The “%Engagement” value (SLC66A3_C135; 0.1 µM) was 12%, the “Engagement Ratio (DMSO/VVD-118313)” value (SLC66A3_C135; 0.1 µM) was 1.1 and the “Engagement Ratio (DMSO/VVD-118313)” value (SLC66A3_C135; 1 µM) was 4.4. The “%Engagement” value (SLC66A3_C135; 10 µM) was 99%, the “Engagement Ratio (DMSO/VVD-118313)” value (SLC66A3_C135; 10 µM) was 20.0 and the “competition of probe 6 labeling of WT-JAK1” value [8] was “blocked in a concentration-dependent manner”. The “effect on IFNα-dependent STAT1 phosphorylation” value [9] was “inhibited” and the “inhibition of IFNα-stimulated STAT1 phosphorylation” value [10] was > 85%.
